Measurements: US20240252651A1, “METHOD OF DELIVERING NUCLEIC ACIDS INTO CELLS” (GUANGZHOU LIDE BIOMEDICINE TECHNOLOGY CO., LTD., priority 2021, published 2024)
Entries after “also recorded” stand apart in the source; their conditions may differ.

How the values were obtained:
A549 cells (A549-Luc) = test: siRNA transfection, luciferase gene silencing in A549-Luc cells; assay type: cell-based, human; settings: final siRNA 100 nM, material 0.5 to 3 μg/well, 48 h, FIG. 10
Method: In this experiment, with I2R2C18-1A1, I2R3C18-1A1, I2R2C18-2A1, and I2R3C18-2A1 as representative cationic lipid analog materials, siRNA transfection and delivery effects of the cationic lipid analog materials were detected in A549 cells (A549-Luc). A specific operation method was as follows:
Luciferase-expressing A549 cells (A549-Luc) were inoculated in a 96-well plate and cultured in an incubator for 12 h; each of different materials (0.5 μg/well to 3 μg/well) was mixed with siRNA in 40 μL of a sodium acetate buffer (25 mM, pH 5.2), and resulting mixtures each were allowed to stand for 10 min and then diluted with 460 μL of an Opti-MEM medium to obtain siRNA-loaded complex particle solutions (final siRNA concentration was 100 nM); a medium for the A549-Luc cells in the plate was removed, then the A549-Luc cells were washed once with PBS, and the complex particle solutions each were added in a volume of 125 μL; the cells were cultured for 48 h, then a resulting culture supernatant was discarded, and the cells were fully lysed; and a substrate was added at 50 μl/well, and an expression level of luciferase was detected by a multi-mode microplate reader.

DC 2.4 cells = test: Transfection of eGFP-mRNA in DC 2.4 cells (FCM and LSCM); assay type: cell-based, mouse; settings: mRNA 0.2 μg/well, material 0.25 to 2 μg/well (dosages per FIG. 7), 24 h
Method: In this experiment, with eGFP-mRNA as model mRNA, an mRNA transfection efficiency of a cationic lipid analog material in DC 2.4 cells was detected. A specific operation method was as follows:
DC 2.4 cells were inoculated in a 48-well plate and cultured in an incubator for 12 h; each of different cationic lipid analog materials (0.25 μg/well to 2 μg/well) was mixed with cGFP-expressing mRNA (0.2 μg/well) in 20 μL of a sodium acetate buffer (25 mM, pH 5.2), and resulting mixtures each were allowed to stand for 10 min and then diluted with 230 μL of a Opti-MEM medium to obtain mRNA-loaded complex particle solutions; a medium for the […] were washed once with PBS, and the complex particle solutions were added; and the cells were cultured for 24 h, an mRNA transfection efficiency in cells was observed by FCM and LSCM. A commercial gene transfection reagent Lipofectamine 2000 was adopted as a positive control.

Hela cells [1] = test: Transfection of GFP-expressing plasmid DNA in Hela cells (flow cytometer); assay type: cell-based, human; settings: plasmid DNA 0.5 μg/well, material 0.25 to 8 μg/well (dosages per FIG. 4), 24 h
Method: In this experiment, with GFP-expressing plasmid DNA as a reporter gene, a gene transfection efficiency of a cationic lipid analog material in Hela cells was detected. A specific method was as follows:
Hela cells were inoculated in a 24-well plate and cultured in an incubator for 12 h; each of different cationic lipid analog materials (0.25 μg/well to 8 μg/well) was mixed with GFP-expressing plasmid DNA (0.5 μg/well) in 40 μL of a sodium acetate buffer (25 mM, pH 5.2), and resulting mixtures each were allowed to stand for 10 min and then diluted with 460 μL of an Opti-MEM medium to obtain plasmid DNA-loaded cationic lipid analog complex particle solutions; a medium for the Hela cells in the plate was removed, then the HeLa cells were washed once with PBS, and the complex particle solutions were added; and the cells were cultured for 24 h, and then a plasmid DNA transfection efficiency in cells was analyzed by a flow cytometer. A commercial gene transfection reagent Lipofectamine 2000 was adopted as a positive control.

Hela cells [2] = test: Transfection of luciferase-expressing plasmid DNA in HeLa cells (luciferase expression); assay type: cell-based, human; settings: plasmid DNA 0.5 μg, 24 h, luciferase expression level, FIG. 5
Method: In this example, with luciferase-expressing plasmid DNA as a reporter gene, a gene transfection efficiency of a cationic lipid analog material in HeLa cells was detected. A specific operation method was as follows: Hela cells were inoculated in a 96-well plate and cultured in an incubator for 12 h; each of different cationic lipid analog materials was mixed with luciferase-expressing plasmid DNA (0.5 μg) in 40 μL of a sodium acetate buffer (25 mM, pH 5.2), and resulting mixtures each were allowed to stand for 10 min and then diluted with 460 μL of an Opti-MEM medium to obtain plasmid DNA-loaded cationic lipid analog complex particle solutions; a medium for the Hela cells in the plate was removed, then the Hela cells were washed once with PBS, and the complex particle solutions were added in a volume of 125 μL; the cells were cultured for 24 h, then a resulting culture supernatant was discarded, and the cells were fully lysed; and a substrate was added at 50 μl/well, and an expression level of luciferase was detected by a multi-mode microplate reader.

Hela cells [3] = test: Cytotoxicity by MTT experiment in Hela cells; assay type: cell-based, human; settings: material 1 μg/ml, 4 h exposure then 20 h culture, FIG. 11
Method: In this experiment, I2R2C16A1, I2R2C17A1, I2R2C18A1, I2R2C19A1, and I2R2C20A1 with high transfection efficiencies were selected as representative cationic lipid analog materials, and the toxicity of cationic lipid analogs for Hela cells was detected by an MTT experiment. A specific experimental method was as follows: HeLa cells were inoculated in a 96-well plate and cultured in an incubator for 12 h, then a medium was removed, and a cationic lipid analog material was added at 1 μg/ml; the cells were cultured for 4 h, then the material was washed away and replaced with DMEM; and the cells were cultured for 20 h, and finally cell viability was detected by MTT.

Structure (SMILES) | gene silencing efficiency as a function of material dosage (A549 cells (A549-Luc)) | siRNA transfection, silencing of the luciferase reporter gene (A549 cells (A549-Luc)) | mRNA transfection efficiency (eGFP-mRNA), compared with Lipofectamine 2000 (DC 2.4 cells; FIG. 7-9) | transfection efficiency of GFP-expressing plasmid DNA, compared with commercial transfection reagent Lipofectamine 2000 (Hela cells [1]) | transfection efficiency of luciferase-expressing plasmid DNA, compared with Lipofectamine 2000 (Hela cells [2]) | cytotoxicity (cell viability by MTT) (Hela cells [3]) | mRNA transfection efficiency (eGFP-mRNA), compared with Lipofectamine 2000 (DC 2.4 cells; FIG. 7-9, listed as 11R2C14A1) | transfection efficiency of GFP-expressing plasmid DNA, compared with commercial transfection reagent Lipofectamine 2000 (Hela cells [1]; listed as 11R2C14A1)
CCCCC/C=C\C/C=C\CCCCCCCC(=O)N(CCCN(C)C)C(C(=O)NCCOCCOCCNC(=O)C(C(C)C)N(CCCN(C)C)C(=O)CCCCCCC/C=C\C/C=C\CCCCC)C(C)C (stereo not drawn) [I2R2C18-2A1] | increases with the increase of a dosage | efficient gene silencing; also recorded: can transfect siRNA into cells to specifically silence the expression of the luciferase reporter gene | high transfection efficiency; also recorded: equivalent to or higher than | reaches or is higher than; also recorded: equivalent to or higher than | equivalent to or higher than | – | – | –
CCCCCCCCCCCCCCCCCC(=O)N(CCCN(C)C)C(C(=O)NCCOCCOCCNC(=O)C(C(C)C)N(CCCN(C)C)C(=O)CCCCCCCCCCCCCCCCC)C(C)C (stereo not drawn) [I2R2C18A1] | – | – | high transfection efficiency; also recorded: equivalent to or higher than | – | – | low cytotoxicity | – | –
CCCCCCCCCCCCCCCCCCCC(=O)N(CCCN(C)C)C(C(=O)NCCOCCOCCNC(=O)C(C(C)C)N(CCCN(C)C)C(=O)CCCCCCCCCCCCCCCCCCC)C(C)C (stereo not drawn) [I2R2C20A1] | – | – | – | – | – | low cytotoxicity | – | –
CCCCCCCC/C=C\CCCCCCCC(=O)N(CCN(C)C)C(C(=O)NCCOCCOCCNC(=O)C(C(C)C)N(CCN(C)C)C(=O)CCCCCCC/C=C\CCCCCCCC)C(C)C (stereo not drawn) [I2R1C18-1A1] | – | – | high transfection efficiency; also recorded: equivalent to or higher than | reaches or is higher than; also recorded: equivalent to or higher than | equivalent to or higher than | – | – | –
CCCCCCCC/C=C\CCCCCCCC(=O)N(CCCN(C)C)C(C(=O)NCCOCCOCCNC(=O)C(C(C)C)N(CCCN(C)C)C(=O)CCCCCCC/C=C\CCCCCCCC)C(C)C (stereo not drawn) [I2R2C18-1A1] | increases with the increase of a dosage | efficient gene silencing; also recorded: can transfect siRNA into cells to specifically silence the expression of the luciferase reporter gene | high transfection efficiency; also recorded: equivalent to or higher than | reaches or is higher than; also recorded: equivalent to or higher than | equivalent to or higher than | – | – | –
CCCCCCCCCCCCCC(=O)N(CCCN(C)C)C(C(=O)NCCCCCCNC(=O)C(C(C)C)N(CCCN(C)C)C(=O)CCCCCCCCCCCCC)C(C)C (stereo not drawn) [I1R2C14A1] | – | – | high transfection efficiency | reaches or is higher than | equivalent to or higher than | – | equivalent to or higher than | equivalent to or higher than
CCCCCCCCCCCCCCCC(=O)N(CCCN(C)C)C(C(=O)NCCOCCOCCNC(=O)C(C(C)C)N(CCCN(C)C)C(=O)CCCCCCCCCCCCCCC)C(C)C (stereo not drawn) [I2R2C16A1] | – | – | high transfection efficiency; also recorded: equivalent to or higher than | reaches or is higher than; also recorded: equivalent to or higher than | equivalent to or higher than | low cytotoxicity | – | –
CCCCCCCCCCCCCC(=O)N(CCN(C)C)C(C(=O)NCCOCCOCCNC(=O)C(C(C)C)N(CCN(C)C)C(=O)CCCCCCCCCCCCC)C(C)C (stereo not drawn) [I2R1C14A1] | – | – | high transfection efficiency; also recorded: equivalent to or higher than | reaches or is higher than; also recorded: equivalent to or higher than | equivalent to or higher than | – | – | –
CCCCC/C=C\C/C=C\CCCCCCCC(=O)N(CCCN(CC)CC)C(C(=O)NCCOCCOCCNC(=O)C(C(C)C)N(CCCN(CC)CC)C(=O)CCCCCCC/C=C\C/C=C\CCCCC)C(C)C (stereo not drawn) [I2R3C18-2A1] | increases with the increase of a dosage | efficient gene silencing; also recorded: can transfect siRNA into cells to specifically silence the expression of the luciferase reporter gene | high transfection efficiency; also recorded: equivalent to or higher than | reaches or is higher than; also recorded: equivalent to or higher than | equivalent to or higher than | – | – | –
